From US11667651B2, “Aminopyridine derivatives as phosphatidylinositol phosphate kinase inhibitors” (HiberCell, Inc., priority 2017, dated 2023)

Assays:
Assay type in all cases: biochemical
[1] = molecular target: T1, PIP4K2B (Homo sapiens, UniProt P78356); assay: Trans-FI P kinase assay PIP4K2B (Table 4); conditions: compounds listed under IC50 bins; read-out: Trans-FI P kinase assays: PIP4K2B IC50
T1 construct: made in house; host or cells: E. coli
T1 sequence (P78356 1-416): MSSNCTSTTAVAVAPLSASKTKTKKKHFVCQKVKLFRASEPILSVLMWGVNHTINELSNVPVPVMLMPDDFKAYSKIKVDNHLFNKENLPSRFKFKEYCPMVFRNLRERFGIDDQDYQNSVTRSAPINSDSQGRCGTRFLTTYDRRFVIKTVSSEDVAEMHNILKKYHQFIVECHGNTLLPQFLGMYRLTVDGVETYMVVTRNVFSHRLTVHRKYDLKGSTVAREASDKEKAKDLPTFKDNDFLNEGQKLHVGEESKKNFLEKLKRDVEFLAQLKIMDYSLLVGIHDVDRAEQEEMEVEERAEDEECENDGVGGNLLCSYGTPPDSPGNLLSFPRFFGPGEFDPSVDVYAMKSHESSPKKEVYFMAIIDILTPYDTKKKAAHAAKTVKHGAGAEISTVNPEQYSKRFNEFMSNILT
Source text: GST tagged PIP4KtypeIIA and B enzymes were overexpressed in E. Coli and purified to >80% homogeneity. Phosphatidyl inositol-5-phosphate (PI5P, Cat. #850152, Avanti Polar Lipids Inc.) was used as the lipid substrate and phosphatidyl ethanolamine (DOPE 18:1, Cat. #850725, Avanti Polar Lipids Inc.) was used as the carrier lipid for assays. Ultrapure ATP and GTP was purchased from Bellbrooke Labs. ADP Glo reagents were obtained from Promega. Transcreener FI reagent was obtained from Bellbrooke labs.
GST-tagged PIP4KtypeIIB (3.4 μL, 2.77 mg/mL) was diluted to 5 mL using HNE buffer to yield 5× enzyme stock (25 nM)
Lipid Preparation: In a 10 mL pyrex glass vial, […] were suspended in 2.5 mL of HEPES buffer mix and 2.5 mL of H:E buffer. The contents were mixed and sonicated for 3 min to yield a translucent lipid stock.
Compound Preparation: Compounds were stored as 5 mM stocks in neat DMSO as room temperature in glass vials. 5 mM stocks were diluted to 2 mM and then serially diluted (3×) in neat DMSO in 96 well polypropylene plates. From the serially diluted stocks, 3 μL was delivered into 250 μL of 25% DMSO (in water) to generate 5× compound stocks. Typically, the highest compound conc. was 24 μM.
The assay volume was kept at 25 μL. To each well of the reaction plate, 10 μL of lipid stock (1:1 ratio PI5P:DOPE) was delivered. This was followed by the addition of 5 μL of compound in 25% DMSO. Then, to each well, 5 μL of 25 nM (5×) typeIIB enzyme was delivered. The contents were mixed well and incubated for 1 h at 27° C. After 1 h, reaction was initiated by adding 5 μL of 500 μM GTP and the contents were mixed well with a multi-channel pipetteman. The final concentration of the reagents are as follows: 50 mM HEPES, pH 7.3, 10 mM MgCl2, 20 mM NaCl, 0.01% v/v triton-X100, 5% DMSO, 100 μM GTP, 80 μM (2 μg) PI5P, 2 μg DOPE, and 5 nM PIP4KIIB Typically, the highest conc. of compounds was 4.8 μM and the lowest conc. was 0.
After 2 h, the reaction was quenched by adding 25 μL of transcreener FI reagent. The contents were incubated at rt for 1 h and the Fluorescence (Ex: 584 Em: 623) was read using Molecular Devices Paradigm plate reader. […] The blanks were averaged and subtracted from all other wells. Using a calibration curve, RFU was converted to μM GDP (product). IC50 was calculated by plotting the residual activity (expressed as % No inhibitor control) vs. log [Inh. conc.]

[2] = molecular target: T2, PIP4K2A (Homo sapiens, UniProt P48426); assay: ADP-glo kinase assay PIP4K 2A (Table 3); design: made in house; host or cells: E. coli; conditions: compounds listed under IC50 bins
T2 sequence (P48426 1-406): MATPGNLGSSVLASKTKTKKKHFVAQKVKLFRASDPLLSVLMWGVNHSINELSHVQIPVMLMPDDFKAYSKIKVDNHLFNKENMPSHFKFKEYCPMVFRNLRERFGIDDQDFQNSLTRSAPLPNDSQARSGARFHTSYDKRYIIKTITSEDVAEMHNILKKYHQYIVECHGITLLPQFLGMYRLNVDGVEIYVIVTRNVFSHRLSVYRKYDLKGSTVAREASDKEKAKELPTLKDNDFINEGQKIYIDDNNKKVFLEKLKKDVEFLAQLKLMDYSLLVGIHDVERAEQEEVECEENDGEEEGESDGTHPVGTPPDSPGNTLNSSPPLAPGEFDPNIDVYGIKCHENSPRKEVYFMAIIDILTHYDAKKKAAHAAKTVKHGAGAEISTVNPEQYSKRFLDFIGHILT
Description: Dilution series of the compounds were prepared in DMSO at 100 times the final assay concentration (n1=n0/3 in 10 points). The compounds were further diluted to three times the assay concentration in assay buffer (20 mM MOPS pH 7.2, 25 mM magnesium chloride, 0.005% Tween 20). 6 μL of the diluted compounds were added to a 384 well assay plate followed by 9 μL of a mix consisting of 4 nM PIP4K2A (full length protein, SignalChem) and 100 μM PI(5)P diC8 (Tebu-Bio). Enzyme and compounds were pre-incubated at room temperature for 15 minutes.
Then 3 μL of a solution containing 60 μM ATP (Promega) in assay buffer was added to the wells containing compound and enzyme and mixing was performed by pipetting several times. The reaction was incubated at room temperature for 1 h. Then 18 μL of ADP-Glo™ Reagent (Promega) was added to stop the kinase reaction and deplete the unconsumed ATP, mixing was performed by pipetting several times. The plate was incubated at room temperature for 40 minutes before addition of 36 μL of Kinase Detection Reagent (Promega) to convert ADP to ATP and introduce luciferase and luciferin to detect ATP. The reaction was incubated at room temperature for 40 minutes before the luminescence was measured in a in a Victor 3V 1420 multilabel counter (Perkin Elmer).
Percent inhibition of the compounds as compared to dimethyl sulfoxide treated control samples was calculated. Compound concentration versus percent inhibition were fitted to generate IC50 values. […]

[3] = molecular target: T2, PIP4K2A; assay: Kinase Assay PIP4K2 A (Table 2); design: 4 nM PIP4K2A (full length protein, SignalChem); purchased SignalChem; conditions: compounds listed under IC50 bins
Procedure, shortened: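 Full-length PIP4K2A (4 nM in the added mix, with 100 μM PI(5)P diC8) pre-incubated 15 min at RT with compounds (10-point, 3-fold series) in 20 mM MOPS pH 7.2, 25 mM MgCl2, 0.005% Tween 20. ATP added from a 60 μM solution, 1 h at RT; ADP-Glo luminescence, IC50 fitted from % inhibition versus DMSO.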

Compound | IC50 [1] [µM] | IC50 [2] [µM] | IC50 [3] [µM]
Nc1nc(Nc2cnc3c(c2)N2C(=O)C4(CC4)C[C@H]2CO3)ncc1-c1ccc(N2CCCC2=O)cc1 [Example 204, (S)-2′-((4-amino-5-(4-(2-oxopyrrolidin-1-yl)phenyl)pyrimidin-2-yl)amino)-6a′,7′-dihydro-6′H,9′H-spiro[cyclopropane-1,8′-pyrido[2,3-b]pyrrolo[1,2-d][1,4]oxazin]-9′-one] | 0.001 to 0.01 | 0.001 to 0.01 | 
O=C1CCCN1c1ccc(-c2cnc(Nc3cnc4c(c3)N3C(=O)CC[C@H]3CO4)nc2)cc1F [Example 187, (S)-2-((5-(3-fluoro-4-(2-oxopyrrolidin-1-yl)phenyl)pyrimidin-2-yl)amino)-6,6a,7,8-tetrahydro-9H-pyrido[2,3-b]pyrrolo[1,2-d][1,4]oxazin-9-one] | 0.01 to 0.1 | 0.01 to 0.1 | 
O=C([C@@H]1CCOC1)N1CCN(c2cncc(Nc3ccc(-c4ccc(N5CCCC5=O)cc4)cn3)c2)CC1 [Example 244, (R)-1-(4-(6-((5-(4-(tetrahydrofuran-3-carbonyl)piperazin-1-yl)pyridin-3-yl)amino)pyridin-3-yl)phenyl)pyrrolidin-2-one] | 0.01 to 0.1 | 0.1 to 1 | 
O=C1CCCN1c1ccc(-c2ccc(Nc3cnc4c(c3)N3C(=O)OC[C@H]3CO4)nc2)cc1 [Example 265, (R)-8-((5-(4-(2-oxopyrrolidin-1-yl)phenyl)pyridin-2-yl)amino)-3a,4-dihydro-1H,3H-oxazolo[3,4-d]pyrido[2,3-b][1,4]oxazin-1-one] | 0.01 to 0.1 | 0.001 to 0.01 | 
O=C1CCCN1c1ccc(-c2ccc(Nc3cnc4c(c3)N3C(=O)OC[C@H]3CO4)nc2)cc1F [Example 295, (R)-8-((5-(3-fluoro-4-(2-oxopyrrolidin-1-yl)phenyl)pyridin-2-yl)amino)-3a,4-dihydro-1H,3H-oxazolo[3,4-d]pyrido[2,3-b][1,4]oxazin-1-one] | 0.01 to 0.1 | 0.001 to 0.01 | 
CN(C)CCCC(=O)Nc1cccc(CCC(=O)Nc2cncc(Nc3ccc(-c4ccc(N5CCCC5=O)cc4)cn3)c2)c1 [Example 170, 4-(dimethylamino)-N-(3-(3-oxo-3-((5-((5-(4-(2-oxopyrrolidin-1-yl)phenyl)pyridin-2-yl)amino)pyridin-3-yl)amino)propyl)phenyl)butanamide] | 0.01 to 0.1 | 0.01 to 0.1 | 
CC(C)c1nc(Nc2cnc3c(c2)N2C(=O)C4(CC4)C[C@H]2CO3)ncc1-c1ccc(N2CCCC2=O)cc1 [Example 216, (S)-2′-((4-isopropyl-5-(4-(2-oxopyrrolidin-1-yl)phenyl)pyrimidin-2-yl)amino)-6a′,7′-dihydro-6′H,9′H-spiro[cyclopropane-1,8′-pyrido[2,3-b]pyrrolo[1,2-d][1,4]oxazin]-9′-one] | 0.001 to 0.01 | ≤ 0.001 | 
Cc1conc1-c1ccc(-c2ccc(Nc3cnc4c(c3)N3C(=O)CC[C@H]3CO4)nc2)cc1 [Example 283, (S)-2-((5-(4-(4-methylisoxazol-3-yl)phenyl)pyridin-2-yl)amino)-6,6a,7,8-tetrahydro-9H-pyrido[2,3-b]pyrrolo[1,2-d][1,4]oxazin-9-one] | 0.01 to 0.1 |  | 0.001 to 0.01

Continued, values first:

IC50 [1] [µM] | IC50 [2] [µM] | IC50 [3] [µM] | Compound
0.01 to 0.1 | 0.01 to 0.1 |  | CN(C)C/C=C/C(=O)Nc1cccc(CCC(=O)Nc2cncc(Nc3ccc(-c4ccc(N5CCCC5=O)cc4)cn3)c2)c1 [Example 169, (E)-4-(dimethylamino)-N-(3-(3-oxo-3-((5-((5-(4-(2-oxopyrrolidin-1-yl)phenyl)pyridin-2-yl)amino)pyridin-3-yl)amino)propyl)phenyl)but-2-enamide]
0.001 to 0.01 | ≤ 0.001 |  | CC(C)c1cc(Nc2cnc3c(c2)N2C(=O)C4(CC4)C[C@H]2CO3)ncc1-c1ccc(N2CCCC2=O)cc1 [Example 210, (S)-2′-((4-isopropyl-5-(4-(2-oxopyrrolidin-1-yl)phenyl)pyridin-2-yl)amino)-6a′,7′-dihydro-6′H,9′H-spiro[cyclopropane-1,8′-pyrido[2,3-b]pyrrolo[1,2-d][1,4]oxazin]-9′-one]
0.001 to 0.01 | ≤ 0.001 |  | COc1nc(Nc2cnc3c(c2)N2C(=O)CC[C@H]2CO3)ncc1-c1ccc(N2CCCC2=O)cc1 [Example 195, (S)-2-((4-methoxy-5-(4-(2-oxopyrrolidin-1-yl)phenyl)pyrimidin-2-yl)amino)-6,6a,7,8-tetrahydro-9H-pyrido[2,3-b]pyrrolo[1,2-d][1,4]oxazin-9-one]
0.01 to 0.1 | 0.01 to 0.1 |  | O=C(Nc1cncc(Nc2ccc(-c3ccc(N4CCCC4=O)cc3)cn2)c1)c1nn[nH]n1 [Example 254, N-(5-((5-(4-(2-oxopyrrolidin-1-yl)phenyl)pyridin-2-yl)amino)pyridin-3-yl)-2H-tetrazole-5-carboxamide]
0.01 to 0.1 | 0.001 to 0.01 |  | Cc1cc(Nc2cnc3c(c2)N2C(=O)C4(CC4)C[C@H]2CO3)ncc1-c1ccc(N2CCCC2=O)cc1 [Example 206, (S)-2′-((4-methyl-5-(4-(2-oxopyrrolidin-1-yl)phenyl)pyridin-2-yl)amino)-6a′,7′-dihydro-6′H,9′H-spiro[cyclopropane-1,8′-pyrido[2,3-b]pyrrolo[1,2-d][1,4]oxazin]-9′-one]
0.01 to 0.1 | 0.001 to 0.01 |  | Cc1cc(Nc2cnc3c(c2)N2C(=O)CC[C@H]2CO3)ncc1-c1ccc(N2CCCC2=O)cc1 [Example 176, (S)-2-((4-methyl-5-(4-(2-oxopyrrolidin-1-yl)phenyl)pyridin-2-yl)amino)-6,6a,7,8-tetrahydro-9H-pyrido[2,3-b]pyrrolo[1,2-d][1,4]oxazin-9-one]
